Source: patent US9844556B2, “Preventive/therapeutic method and preventive/therapeutic agent for complications after cataract surgery” (KOWA COMPANY, LTD., priority 2015, dated 2017)

How the values were obtained:
[1] = system: Human lens epithelial cells (HLEpiC); experiment: Reversibility of inhibition of actin stress fiber formation after removal; format: cell-based; conditions: recultured about 24 hours after removal
Description: After removal of the test substance, positive control or comparative control in Example 1, the cells were recultured for about another 24 hours, treated in accordance with the operation in Example 1, and then observed by a confocal laser scanning microscope in the same manner as in Example 1 to observe the reversibility of actin stress fibers.

[2] = system: HLEpiC; experiment: Determination of G-actin/F-actin ratio using G-Actin/F-Actin In Vivo Assay Kit; format: cell-based, human; conditions: about an hour, control 1.16
Description: HLEpiC was diluted with a medium (Epithelial Cell Medium), and dispensed to a Poly-L-lysine coated T-75 flask at about 5000 cells/cm^2, and cultured in a carbon dioxide incubator (37° C., 5% CO2) until about 50% confluent. A test substance, a positive control or the medium (control) at each concentration given below was added to each flask at 20 mL.
(§1) Test substance: Ripasudil with a concentration of […], 100 μM or 1 mM,
Positive control: CD with a concentration of 2 μM, and
These were treated in a carbon dioxide incubator (37° C., 5% CO2) for about an hour.
To 20 mL of Lysis and F-actin stabilization buffer was added 200 μL of 100 mM ATP stock solution and 200 μL of 100× Protease inhibitor cocktail stock to produce LAS2 buffer, and this was incubated in a carbon dioxide incubator (37° C.) for about 30 minutes. Warmed LAS2 buffer was added at 2.5 mL to each flask in which the medium was removed with vacuum suction.
Next, adherent HLEpiC was completely scraped with a cell scraper and transferred with the LAS2 buffer to a conical tube, and HLEpiC was crushed with a micropipette (hereinafter, referred to as cell solution). This cell solution was incubated in a carbon dioxide incubator (37° C.) for about 10 minutes and then centrifuged for 10 minutes (2000 rpm, room temperature). The supernatant was dispensed into an ultracentrifugal tube at 1.8 mL and centrifuged for an hour with an ultracentrifuge (100,000× g, 37° C.). At this time, F-actin is precipitated and G-actin remains in the supernatant.
The supernatant was transferred to a conical tube while being careful not to suck F-actin precipitates.
To precipitates of each sample was added 1.8 mL of F-actin depolymerizing buffer, and this was incubated under ice-cold conditions for an hour to depolymerize actin.
From each supernatant sample and precipitate sample, 100 μL each was put in a 1.5 mL Eppendorf tube, and 25 μL of 5×SDS sample buffer was added and stirred.
Each sample was boiled in a boiling water bath for 5 minutes.
Each sample was subjected to SDS-polyacrylamide gel electrophoresis, followed by Western blotting.
Next, after treatment using a Western blotting detection reagent (ECL Select Western Blotting Detection Reagent, GE Healthcare Japan), proteins were detected using a Lumino image analyzer. The quantities of G-actin and F-actin were determined using an analysis software (ImageQuant TL, GE Healthcare Japan) and the G-actin/F-actin ratio was calculated.
The variation in the quantity of F-actin required to form actin stress fibers was evaluated by comparison with the G-actin/F-actin ratio of untreated (Control) cells.

[3] = system: HLEpiC; experiment: Inhibitory action on cell migration (Oris Cell Migration plate); format: cell-based, human; conditions: about 24 and 48 hours after treatment
Description: HLEpiC was diluted with a medium (Epithelial Cell Medium) and dispensed to Poly-L-lysine coated Oris™ Cell Migration 96 well plate, to which a stopper was firmly attached, at 50 μL/well (25000 cells/well) and cultured in a carbon dioxide incubator (37° C., 5% CO2) for 24 hours. The stopper was removed, and after brief washing with the medium, a solution obtained by adding 5 μL of 10 mM Cell Tracker Green Fluorescent Probe (Lonza Walkersville, Inc.) to 4995 μL of the medium was added at 100 μL/well, and the cells were stained in a carbon dioxide incubator (37° C., 5% CO2) for about 30 minutes. After brief washing with the medium, the medium was further added and the cells were cultured in a carbon dioxide incubator (37° C., 5% CO2) for about 30 minutes.
After brief washing with the medium, a test substance, a positive control, a comparative control or the medium (control) at each concentration given below was added at 100 μL/well.
as §1
Positive control: CD with a concentration of 2 μM,
These were cultured in a carbon dioxide incubator (37° C., 5% CO2). The state of HLEpiC in the Detection Zone in each sample was observed by a confocal laser scanning microscope about 24 hours after the treatment and 48 hours after the treatment.

[4] = system: Human lens epithelial cells (SRA01/04); experiment: Action on DNA synthesis capability (BrdU uptake) of human lens epithelial cell line; format: cell-based; conditions: 24 hours
Description: Human lens epithelial cells (SRA01/04 (Riken Cell Bank)) were cultured using 20% FBS-DMEM medium under conditions of 37° C. and 5% CO2. The concentration of SRA01/04 was adjusted using 2% FBS-DMEM, and the cells were seeded in a 96 Well Plate at 100 μL/well (5000 cells/well) and cultured under conditions of 37° C. and 5% CO2 for 24 hours. The medium was exchanged with 5% FBS-DMEM medium, and TGFβ at 10 ng/mL (final concentration) or Ripasudil at 10, 30 or 100 μM (final concentration) was added to each well, and the cells were cultured for another 24 hours. The uptake rate of 5-bromo-2′-deoxyuridine (BrdU) in the cells was measured using Cell Proliferation ELISA, BrdU (colorimetric) kit (Roche) at a measurement wavelength of 450 nm by Multiskan MS version 8.0 (LABSYSTEMS), and cell proliferation properties were evaluated.

[5] = system: HT-1080 cell-containing collagen gel; experiment: Inhibitory action on collagen gel contraction; format: cell-based; design: key: +: a contraction level was almost equal to that of a group to which Ripasudil was not added; ++: contraction was inhibited; +++: contraction was significantly inhibited; conditions: HT1080 collagen gel, two or three days
Description: HT-1080 cell suspension adjusted to a density of 150000 to 200000 cells/mL with a medium (medium: E'MEM (Sigma)/10% FBS/NEAA/PCSM), and a solution, obtained by mixing A, B and C solutions (A solution: Cellmatrix (Collagen Type I 3 mg/mL), B solution: concentrated culture solution, 10×MEM Hank's culture solution, and C solution: buffer solution for reconstitution) of collagen gel culture kit (Nitta Gelatin Inc.) mixed at a ratio of 8:1:1 and cooling the obtained mixture, were mixed at a ratio of 1.4:1, and the obtained mixture was seeded in a 48 Well Plate at 500 μL/well and gelatinized in a CO2 incubator to produce a cell-containing collagen gel. After gelation, 1 mL of the medium in which Ripasudil was adjusted to 0.1 μM, 1 μM or 10 μM was added on the gel, and an injection needle was inserted between the gel and the wall surface to release the gel from the wall surface, and the gel was incubated to stand in a CO2 incubator. After two or three days, the contraction of the gel was observed, and photos were taken to evaluate the actions of Ripasudil.

## C[C@H]1CNCCCN1S(=O)(=O)c1cccc2cncc(F)c12 [Ripasudil, 4-fluoro-5-{[(2S)-2-methyl-1,4-diazepan-1-yl]sulfonyl}isoquinoline]
[1]; 100 μM
  reversibility of actin stress fibers: recovered
[1]; 1 mM
  reversibility of actin stress fibers: recovered
[2]; 10 μM
  G-actin/F-actin ratio: 1.91
[2]; 100 μM
  G-actin/F-actin ratio: 4.55
[2]; 1 mM
  G-actin/F-actin ratio: 24.87
[3]; 100 μM
  cell migration into Detection Zone (observation): tendency of inhibition of cell migration
[3]; 1 mM
  cell migration into Detection Zone (observation): definite inhibitory action on cell migration
[4]; 30 μM
  DNA synthesis capability (BrdU uptake) of SRA01/04: statistically significant decrease
[4]; 10, 30 or 100 μM
  DNA synthesis capability (BrdU uptake) of SRA01/04: dose-dependent inhibitory action
[5]; Ripasudil 0.1 μM
  Inhibition of contraction: +
[5]; Ripasudil 1.0 μM
  Inhibition of contraction: ++
[5]; Ripasudil 10.0 μM
  Inhibition of contraction: +++
